Literature values, collected in US9029312B2, “Compositions for cleaning applicators for hair removal compositions” (priority 2012, dated 2015).

Legend:
[1] = Bhargava & Leonard 1996

In the case of `Oc1cc(Cl)ccc1Oc1ccc(Cl)cc1Cl` [Triclosan, 5-Chloro-2-(2,4-dichlorophenoxy) phenol], the “solubility in mineral oil” value is listed as “relatively high solubility in mineral oil”, the “carcinogenic, mutagenic or teratogenic effects” value [1] is listed as “not found to have any carcinogenic, mutagenic or teratogenic effects” and the “toxicity to humans and other mammals” value [1] is listed as “relatively non-toxic”.
